Consider 54 molecules from BindingDB's records for doi:10.7270/Q28G8J4C (Broad Institute, 2009).

pEC50: −log10 of the molar value. Where only a bound is given, the exact number is not on record here.

Usually pEC50 stands for the negative decadic logarithm of the EC50, by convention in mol/L. Low values mean a large EC50, high ones a small EC50.

For the assay, the target named is T1, POsterior Segregation (Caenorhabditis elegans, UniProt G5EF15).
T1 sequence (G5EF15 whole entry): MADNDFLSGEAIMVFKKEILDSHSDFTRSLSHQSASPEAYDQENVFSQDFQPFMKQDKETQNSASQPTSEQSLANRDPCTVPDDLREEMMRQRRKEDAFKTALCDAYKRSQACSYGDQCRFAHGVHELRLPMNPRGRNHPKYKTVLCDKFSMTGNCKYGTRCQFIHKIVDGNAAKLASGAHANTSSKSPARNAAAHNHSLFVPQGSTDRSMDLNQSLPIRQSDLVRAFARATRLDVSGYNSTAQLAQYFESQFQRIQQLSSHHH
Nature of the assay: inhibitors of POS-1/mex-3 RNA binding, dose response, biochemical, fluorescence polarization (AID 1964).
In the case of `COc1ccc(C2C(C(=O)c3cccs3)C(=O)C(=O)N2c2nncs2)cc1` (centres undefined), the negative-log EC50 (pEC50) was 6.26.

The molecule `O=C(O)c1ccc(S(=O)(=O)N=C2C=C(Nc3ccccc3F)C(=O)c3ccccc32)cc1` showed a pEC50 of 3.93.

With `COc1ccc(C2C(C(C)=O)=C(C)N=c3sc(=Cc4cc(C)n(C)c4C)c(=O)n32)c(OC)c1` (centres undefined), the pEC50 is 4.96.

As to `N#CC1C(=N)OC2=C(C(=O)CC(c3ccccc3)C2)C1c1ccc2c(c1)OCO2` (centres undefined), the pEC50 was less than 3.52.

With `Clc1ccc(C2=Nc3ncnn3C(c3ccco3)C2)cc1` (centres undefined), the pEC50 was 4.61.

Molecule `Brc1ccc(C2=Nc3ncnn3C(c3ccco3)C2)cc1` (centres undefined) gave a pEC50 of less than 3.52.

As for `CS(=O)(=O)Nc1nc2n(n1)C(c1ccccc1)CC(c1ccc(Br)cc1)=N2` (centres undefined), the pEC50 is less than 3.52.

Molecule `COc1ccccc1-n1c(O)c2n(-c3ccc(C)cc3)[nH]c(C(=O)c3ccccc3)c-2c1=O` gave a pEC50 of 4.86.

The molecule `COc1cc(C2c3c(-c4cccnc4)n[nH]c3OC(=N)C2C#N)cc(Br)c1O` (centres undefined) showed a pEC50 of less than 3.52.

Consider `O=C1N=c2ccccc2=C1NNc1ccc(F)cc1`, for which the pEC50 was less than 3.52.

`c1ccc(CN=Nc2nc3ccccc3[nH]2)nc1` gave a pEC50 of 4.14.

For `Cc1c(C(=O)NN=Cc2ccco2)[nH][nH]c1=O`, the pEC50 was less than 3.52.

For `COC1=CC([N+](=O)[O-])=CC(/C=N/NC(=O)CC#N)C1=O` (centres undefined), the pEC50 is less than 3.52.

The molecule `Cc1ccc(Cl)c2c1NC(=O)/C2=C1/NC(=S)NC1=O` showed a pEC50 of 4.84.

`Cc1c(C(=O)O)cccc1-n1c(C)cc(CN=Nc2ccc([N+](=O)[O-])cn2)c1C` showed a pEC50 of less than 3.52.

As to `COc1ccc(OC)c(NC=C2C(=O)NC(=S)N(Cc3ccccc3)C2=O)c1`, the pEC50 is less than 3.52.

As to `C[C@H]1c2cccc(O)c2C(=O)C2C(=O)[C@]3(O)C(=O)C(C(N)=O)C(=O)[C@@H](N(C)C)[C@@H]3[C@@H](O)[C@@H]21` (some centres undefined), the pEC50 is less than 3.52.

Turning to `COc1cc(C2C3=C(CC(C)(C)CC3=O)OC(=N)C2C#N)cc2c1OCO2` (centres undefined), the pEC50 was less than 3.52.

Consider `O=C(NN=Cc1c(O)ccc2ccccc12)Nc1ccccc1`, for which the pEC50 was 3.98.

Molecule `N#CC1C(=N)OC2=C(C(=O)CCC2)C1c1ccc2c(c1)OCO2` (centres undefined) gave a pEC50 of less than 3.52.

As to `Cc1ccc(Cl)c2c1=NC(=O)C=2NNc1ccccc1`, the negative logarithm of the EC50 (pEC50) is 4.73.

For the molecule `COc1cc(C2C3=C(CCCC3=O)OC(=N)C2C#N)cc2c1OCO2` (centres undefined), the pEC50 is less than 3.52.

For `Cc1ccc2c(c1)=C(NNc1ccccc1C)C(=O)N=2`, the pEC50 is less than 3.52.

On to `O=C1NC(=O)N(c2cccc(F)c2)C(=O)C1=Cc1c[nH]c2ccccc12`, for which the pEC50 was less than 3.52.

Regarding `COc1ccccc1OCC(=O)NN=Cc1c(O)ccc2ccccc12`, the pEC50 is 3.64.

With `Oc1ccc(CN=Nc2ccc(Cl)nn2)c(O)c1O`, the pEC50 was 4.30.

With `N#CCC(=N)C(C#N)C#N` [1,1,3-tricyano-2-amino-1-propene], the pEC50 was 4.26.

`O=C(NN=CC1=CC(=O)C(=O)CC1)NN=CC1=CC(=O)C(=O)CC1` [1,3-bis[[(Z)-(3-hydroxy-4-oxocyclohexa-2,5-dien-1-ylidene)methyl]amino]urea] gave a negative logarithm of the EC50 (pEC50) of 4.79.

As for `CCN(CC)CCN1C(=O)C(=O)C(C(=O)c2cc3cccc(OC)c3o2)C1c1ccc(F)cc1` (centres undefined) [1-(2-Diethylamino-ethyl)-5-(4-fluoro-phenyl)-3-hydroxy-4-(7-methoxy-benzofuran-2-carbonyl)-1,5-dihydr o-pyrrol-2-one], the negative-log EC50 (pEC50) was less than 3.52.

Molecule `C=CCOc1cccc(C2C(C(=O)c3ccco3)C(=O)C(=O)N2Cc2ccco2)c1` (centres undefined) [1-(2-furanylmethyl)-3-[2-furanyl(oxo)methyl]-4-hydroxy-2-(3-prop-2-enoxyphenyl)-2H-pyrrol-5-one] had a pEC50 of less than 3.52.

Molecule `O=C1Nc2ccccc2/C1=N/NC(=S)Nc1ccc(O)cc1` [1-(4-hydroxyphenyl)-3-[(2-oxidanylideneindol-3-yl)amino]thiourea] gave a negative logarithm of the EC50 (pEC50) of 4.79.

For the molecule `C=CCOc1ccc(C2C(C(=O)c3cccs3)C(=O)C(=O)N2c2nnc(C)s2)cc1` (centres undefined) [1-(5-methyl-1,3,4-thiadiazol-2-yl)-4-oxidanyl-2-(4-prop-2-enoxyphenyl)-3-thiophen-2-ylcarbonyl-2H-pyrrol-5-one], the pEC50 is 4.97.

On to `COc1ccc(NC=C2C(=O)NC(=S)N(Cc3ccccc3)C2=O)c(OC)c1` [1-Benzyl-5-[1-(2,4-dimethoxy-phenylamino)-meth-(Z)-ylidene]-2-thioxo-dihydro-pyrimidine-4,6-dione], for which the pEC50 was less than 3.52.

`CSc1nncc(C(C)N=Nc2ccccc2)n1` (centres undefined) [1-[3-(methylsulfanyl)-1,2,4-triazin-5-yl]ethanone phenylhydrazone] had a pEC50 of 4.38.

For the molecule `C=CCSc1nnc(N2C(=O)C(=O)C(C(=O)c3ccco3)C2c2ccccc2F)s1` (centres undefined) [1-[5-(allylthio)-1,3,4-thiadiazol-2-yl]-5-(2-fluorophenyl)-4-(2-furoyl)-3-hydroxy-3-pyrrolin-2-one], the negative-log EC50 (pEC50) was 4.32.

For the molecule `C=CCSc1nnc(N2C(=O)C(=O)C(C(=O)c3ccco3)C2c2ccc(F)cc2)s1` (centres undefined) [1-[5-(allylthio)-1,3,4-thiadiazol-2-yl]-5-(4-fluorophenyl)-4-(2-furoyl)-3-hydroxy-3-pyrrolin-2-one], the pEC50 was 3.94.

Consider `CC(C)c1ccc(C2C(C#N)=C3Sc4ccccc4N3C(=N)C2C#N)cc1` (centres undefined) [1-amino-3-(4-propan-2-ylphenyl)-3H-pyrido[2,1-b][1,3]benzothiazole-2,4-dicarbonitrile], for which the pEC50 is 4.48.

With `CC1(C)CC(=O)C2Sc3ccccc3N=C2C1` (centres undefined) [2,2-Dimethyl-2,3-dihydro-1H,10H-phenothiazin-4-one], the pEC50 was 4.36.

Molecule `Oc1c(Br)cc(Br)c(C=Nn2c(-c3ccccc3)n[nH]c2=S)c1Br` [2,4,6-Tribromo-3-[(3-mercapto-5-phenyl-[1,2,4]triazol-4-ylimino)-methyl]-phenol] had a pEC50 of 5.07.

As for `COc1cccc(C2C(C(=O)c3cc4cccc(OC)c4o3)C(=O)C(=O)N2c2cc(C)on2)c1OC` (centres undefined) [2-(2,3-dimethoxyphenyl)-3-[(7-methoxy-1-benzofuran-2-yl)carbonyl]-1-(5-methyl-1,2-oxazol-3-yl)-4-oxidanyl-2H-pyrrol-5-one], the pEC50 was less than 3.52.

The molecule `COc1ccc(OC)c(C2C(C(=O)c3ccco3)C(=O)C(=O)N2CCN2CCOCC2)c1` (centres undefined) [2-(2,5-dimethoxyphenyl)-3-(furan-2-carbonyl)-4-hydroxy-1-(2-morpholin-4-ylethyl)-2H-pyrrol-5-one] gave a negative logarithm of the EC50 (pEC50) of less than 3.52.

Regarding `COc1cccc(C2C3=C(CCCC3=O)OC(=N)C2C#N)c1OC(=O)c1ccco1` (centres undefined) [2-(2-amino-3-cyano-5-oxo-5,6,7,8-tetrahydro-4H-chromen-4-yl)-6-methoxyphenyl 2-furoate], the pEC50 is less than 3.52.

Molecule `CC1(C)CC(=O)C2=C(C1)OC(=N)C(C#N)C2c1ccccc1OC(=O)N1CCOCC1` (centres undefined) [2-(2-amino-3-cyano-7,7-dimethyl-5-oxo-5,6,7,8-tetrahydro-4H-chromen-4-yl)phenyl morpholine-4-carboxylate] showed a pEC50 of less than 3.52.

Take `CCCSc1nnc(N2C(=O)C(=O)C(C(=O)c3ccco3)C2c2ccccc2F)s1` (centres undefined) [2-(2-fluorophenyl)-3-(furan-2-carbonyl)-4-hydroxy-1-(5-propylsulfanyl-1,3,4-thiadiazol-2-yl)-2H-pyrrol-5-one]: the negative-log EC50 (pEC50) was less than 3.52.

`COc1ccc(C2C(C(=O)c3cccs3)C(=O)C(=O)N2c2nnc(C)s2)cc1OC` (centres undefined) [2-(3,4-dimethoxyphenyl)-1-(5-methyl-1,3,4-thiadiazol-2-yl)-4-oxidanyl-3-thiophen-2-ylcarbonyl-2H-pyrrol-5-one] showed a pEC50 of 5.14.

In turn, `COc1ccc(C2C(C(=O)c3ccco3)C(=O)C(=O)N2c2nnc(C)s2)cc1OC` (centres undefined) [2-(3,4-dimethoxyphenyl)-3-(furan-2-carbonyl)-4-hydroxy-1-(5-methyl-1,3,4-thiadiazol-2-yl)-2H-pyrrol-5-one] gave a pEC50 of less than 3.52.

Regarding `Cc1ccc(C(=O)C2C(=O)C(=O)N(Cc3ccco3)C2c2cccc(Br)c2)o1` (centres undefined) [2-(3-bromophenyl)-1-(2-furanylmethyl)-4-hydroxy-3-[(5-methyl-2-furanyl)-oxomethyl]-2H-pyrrol-5-one], the pEC50 was less than 3.52.

Turning to `CCCCOc1cccc(C2C(C(=O)c3ccc(C)o3)C(=O)C(=O)N2c2nnc(C)s2)c1` (centres undefined) [2-(3-butoxyphenyl)-3-(5-methylfuran-2-yl)carbonyl-1-(5-methyl-1,3,4-thiadiazol-2-yl)-4-oxidanyl-2H-pyrrol-5-one], the pEC50 was 3.99.

`CSc1nnc(N2C(=O)C(=O)C(C(=O)c3ccco3)C2c2cccc(Cl)c2)s1` (centres undefined) [2-(3-chlorophenyl)-3-(furan-2-carbonyl)-4-hydroxy-1-(5-methylsulfanyl-1,3,4-thiadiazol-2-yl)-2H-pyrrol-5-one] gave a pEC50 of 4.50.

In the case of `CCOc1cccc(C2C(C(=O)c3ccc(C)o3)C(=O)C(=O)N2c2nccs2)c1` (centres undefined) [2-(3-ethoxyphenyl)-3-(5-methylfuran-2-yl)carbonyl-4-oxidanyl-1-(1,3-thiazol-2-yl)-2H-pyrrol-5-one], the negative logarithm of the EC50 (pEC50) is 5.85.

The molecule `Cc1cccc(Nc2nc(O)cs2)c1` [2-(3-methylanilino)-1,3-thiazol-4-one] showed a negative-log EC50 (pEC50) of less than 3.52.

For `Cc1nnc(N2C(=O)C(=O)C(C(=O)c3ccco3)C2c2ccc(F)cc2)s1` (centres undefined) [2-(4-fluorophenyl)-3-(furan-2-carbonyl)-4-hydroxy-1-(5-methyl-1,3,4-thiadiazol-2-yl)-2H-pyrrol-5-one], the negative logarithm of the EC50 (pEC50) is 4.47.

The molecule `CSc1nnc(N2C(=O)C(=O)C(C(=O)c3ccco3)C2c2ccc(F)cc2)s1` (centres undefined) [2-(4-fluorophenyl)-3-(furan-2-carbonyl)-4-hydroxy-1-(5-methylsulfanyl-1,3,4-thiadiazol-2-yl)-2H-pyrrol-5-one] showed a pEC50 of 3.82.

The molecule `Cc1[nH]c2ccccc2c1/C=C1\N=C(c2ccc(F)cc2)OC1=O` [2-(4-fluorophenyl)-4-[(2-methyl-1H-indol-3-yl)methylene]-1,3-oxazol-5(4H)-one] gave a pEC50 of less than 3.52.
